Assay results taken from patent US8859571B2, “Quinazoline compounds” (GlaxoSmithKline LLC, priority 2009, dated 2014).

Biological target: T1, Full length human TNNI3K (hTNNI3K) (Homo sapiens, UniProt Q59H18)
T1 construct: His-MBP-TEV-Full length human TNNI3K (hTNNI3K); His (N); MBP (N); TEV cleavage site (N); made in house; host or cells: baculovirus system (printed 'Baculokinase system')
T1 sequence (Q59H18 1-835): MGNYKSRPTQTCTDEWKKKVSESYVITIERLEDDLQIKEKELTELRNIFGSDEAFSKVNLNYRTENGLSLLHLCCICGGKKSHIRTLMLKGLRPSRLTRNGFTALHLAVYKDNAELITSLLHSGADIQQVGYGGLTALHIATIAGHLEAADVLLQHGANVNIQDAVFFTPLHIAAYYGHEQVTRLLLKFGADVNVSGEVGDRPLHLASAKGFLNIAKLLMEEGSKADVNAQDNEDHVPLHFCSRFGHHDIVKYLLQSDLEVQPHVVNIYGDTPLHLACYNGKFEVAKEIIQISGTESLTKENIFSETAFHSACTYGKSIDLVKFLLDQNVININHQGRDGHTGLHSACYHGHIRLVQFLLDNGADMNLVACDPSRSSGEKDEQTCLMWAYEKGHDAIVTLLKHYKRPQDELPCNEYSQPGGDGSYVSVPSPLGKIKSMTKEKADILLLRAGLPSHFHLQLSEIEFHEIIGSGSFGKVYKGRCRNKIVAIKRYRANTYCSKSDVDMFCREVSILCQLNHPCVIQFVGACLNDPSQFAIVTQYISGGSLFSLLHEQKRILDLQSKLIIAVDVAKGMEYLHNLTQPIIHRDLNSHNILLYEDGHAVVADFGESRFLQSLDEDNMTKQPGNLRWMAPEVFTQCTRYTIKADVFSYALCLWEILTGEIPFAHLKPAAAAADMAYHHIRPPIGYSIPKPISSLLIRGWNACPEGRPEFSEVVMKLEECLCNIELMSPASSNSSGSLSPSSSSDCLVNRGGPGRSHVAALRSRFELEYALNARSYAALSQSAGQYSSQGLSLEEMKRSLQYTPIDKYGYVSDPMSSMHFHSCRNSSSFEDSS
Experiment: Fluorescent polarization assay of compound inhibition on hTNNI3K ATP binding (Biological Assay Method I)
Conditions: displacement of fluorescent ligand from hTNNI3K ATP binding pocket; mean of a minimum of 2 experiments; read-out: pXC50 (the source's name) (converted)

## CNc1ccc2ncnc(Nc3cc(S(=O)(=O)NC)ccc3N(C)C)c2c1 [Example 87, 4-(dimethylamino)-N-methyl-3-((6-(methylamino)quinazolin-4-yl)amino)benzenesulfonamide bis(trifluoroacetate)]
  IC50: 10 to 100 nM

## CNc1ccc2c(Nc3cc(S(=O)(=O)NC)ccc3N(C)C)ncnc2c1 [Example 88, 4-(dimethylamino)-N-methyl-3-((7-(methylamino)quinazolin-4-yl)amino) benzenesulfonamide]
  IC50: 10 to 100 nM
